Laboratory results from publication PMC4664181 (ChemMedChem, 2009).
“Also recorded” adds a separate entry of the source. Like-named read-outs stand apart in the source and are kept apart here. Each block holds one molecule with its values, some of them ahead of it.

Assays:
NR1/NR2C [1] = molecular target: T1, NR1/NR2C (Rattus norvegicus, UniProt Q00961); assay type: cell-based; conditions: NR1/NR2C; for I/Imax (relative maximal response): relative to maximal response to glutamate (1.0)
NR1/NR2D [2] = molecular target: T2, NR1/NR2D (Rattus norvegicus, UniProt Q62645); assay type: cell-based; conditions: for Agonist activity (in words) / EC50 / pEC50 (mean ± SEM) / I/Imax (relative maximal response): NR1/NR2D; for I/Imax (relative maximal response): relative to maximal response to glutamate (1.0)
native NMDA receptors [3] = experiment: Radioligand binding assay; conditions: rat brain synaptosomes; for [3H]CGP39653 mean pKi ± SEM: three to five experiments; for Ki: read-out: [3H]CGP39653 Ki, mean of three to five experiments
NR1/NR2A [4] = molecular target: T3, NR1/NR2A (Rattus norvegicus, UniProt Q00959); assay type: cell-based; conditions: for EC50: NR = no response up to 1000 μM
NR1/NR2B [5] = molecular target: T4, NR1/NR2B (Rattus norvegicus, UniProt Q00960); assay type: cell-based; conditions: NR1/NR2B; for EC50: NR = no response up to 1000 μM
NR1/NR2C [6] = molecular target: NR1/NR2C (Rattus norvegicus, UniProt P35439+Q00961); assay type: cell-based
NR1/NR2D [7] = molecular target: NR1/NR2D (Rattus norvegicus, UniProt P35439+Q62645); assay type: cell-based
NR1/NR2B [8] = molecular target: NR1/NR2B (Rattus norvegicus, UniProt P35439+Q00960); assay type: cell-based
[9] = tested on: native excitatory amino acid transporters (EAATs); conditions: cited from earlier work
NR1/NR2A [10] = molecular target: T3, NR1/NR2A; conditions: cited from earlier work
native NMDA receptors [11] = conditions: read-out: [3H]CGP39653 Ki; rat brain synaptosomes; cited from earlier work
NR1/NR2B [12] = molecular target: T4, NR1/NR2B; conditions: cited from earlier work
NR1/NR2D [13] = molecular target: T2, NR1/NR2D; conditions: cited from earlier work
NR1/NR2C [14] = molecular target: T1, NR1/NR2C; conditions: cited from earlier work
[15] = tested on: NR2A (Y730 to phenylalanine); conditions: mutant vs wild type NR2A; cited from earlier work
NR2D(Y732F) = conditions: mutant vs wild type NR2D; cited from earlier work
[16] = relative to maximal response to glutamate (1.0)

T4 sequence (Q00960 27-1482, other chains not shown): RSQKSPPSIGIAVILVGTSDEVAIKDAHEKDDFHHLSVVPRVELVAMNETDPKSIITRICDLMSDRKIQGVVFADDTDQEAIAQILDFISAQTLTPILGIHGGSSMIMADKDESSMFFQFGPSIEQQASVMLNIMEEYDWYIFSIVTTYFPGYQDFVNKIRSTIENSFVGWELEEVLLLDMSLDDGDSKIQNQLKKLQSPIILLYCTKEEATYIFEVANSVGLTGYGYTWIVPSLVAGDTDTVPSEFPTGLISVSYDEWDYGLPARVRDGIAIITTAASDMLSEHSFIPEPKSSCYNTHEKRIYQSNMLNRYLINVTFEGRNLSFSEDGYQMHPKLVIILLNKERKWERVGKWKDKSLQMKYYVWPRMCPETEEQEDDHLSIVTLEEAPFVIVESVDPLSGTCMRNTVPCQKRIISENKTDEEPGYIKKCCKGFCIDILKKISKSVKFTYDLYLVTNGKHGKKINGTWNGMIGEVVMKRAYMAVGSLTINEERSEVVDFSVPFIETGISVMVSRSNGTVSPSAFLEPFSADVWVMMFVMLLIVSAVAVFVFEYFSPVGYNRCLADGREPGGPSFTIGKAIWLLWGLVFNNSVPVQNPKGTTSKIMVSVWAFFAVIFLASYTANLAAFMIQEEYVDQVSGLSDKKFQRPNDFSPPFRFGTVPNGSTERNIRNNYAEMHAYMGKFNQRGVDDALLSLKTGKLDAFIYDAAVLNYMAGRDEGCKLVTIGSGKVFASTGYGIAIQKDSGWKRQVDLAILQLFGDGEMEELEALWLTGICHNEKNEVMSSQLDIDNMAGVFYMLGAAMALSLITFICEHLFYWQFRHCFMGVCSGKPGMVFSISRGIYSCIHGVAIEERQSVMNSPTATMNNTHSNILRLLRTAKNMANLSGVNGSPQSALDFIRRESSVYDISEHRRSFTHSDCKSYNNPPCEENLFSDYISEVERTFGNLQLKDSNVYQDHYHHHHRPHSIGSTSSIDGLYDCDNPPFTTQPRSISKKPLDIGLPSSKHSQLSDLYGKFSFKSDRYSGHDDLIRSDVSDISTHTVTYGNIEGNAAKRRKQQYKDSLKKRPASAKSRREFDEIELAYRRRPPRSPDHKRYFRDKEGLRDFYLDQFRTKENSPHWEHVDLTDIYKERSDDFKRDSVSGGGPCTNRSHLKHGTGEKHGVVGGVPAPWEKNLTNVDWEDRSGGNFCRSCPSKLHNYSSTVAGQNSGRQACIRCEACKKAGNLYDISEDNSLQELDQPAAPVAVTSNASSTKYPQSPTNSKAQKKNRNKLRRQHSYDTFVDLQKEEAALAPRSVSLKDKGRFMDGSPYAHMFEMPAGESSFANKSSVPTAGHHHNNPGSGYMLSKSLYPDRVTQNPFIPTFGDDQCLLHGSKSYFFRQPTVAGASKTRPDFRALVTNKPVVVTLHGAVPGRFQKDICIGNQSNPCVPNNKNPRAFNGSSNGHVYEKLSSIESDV
T3 sequence (Q00959 23-1464, other chains not shown): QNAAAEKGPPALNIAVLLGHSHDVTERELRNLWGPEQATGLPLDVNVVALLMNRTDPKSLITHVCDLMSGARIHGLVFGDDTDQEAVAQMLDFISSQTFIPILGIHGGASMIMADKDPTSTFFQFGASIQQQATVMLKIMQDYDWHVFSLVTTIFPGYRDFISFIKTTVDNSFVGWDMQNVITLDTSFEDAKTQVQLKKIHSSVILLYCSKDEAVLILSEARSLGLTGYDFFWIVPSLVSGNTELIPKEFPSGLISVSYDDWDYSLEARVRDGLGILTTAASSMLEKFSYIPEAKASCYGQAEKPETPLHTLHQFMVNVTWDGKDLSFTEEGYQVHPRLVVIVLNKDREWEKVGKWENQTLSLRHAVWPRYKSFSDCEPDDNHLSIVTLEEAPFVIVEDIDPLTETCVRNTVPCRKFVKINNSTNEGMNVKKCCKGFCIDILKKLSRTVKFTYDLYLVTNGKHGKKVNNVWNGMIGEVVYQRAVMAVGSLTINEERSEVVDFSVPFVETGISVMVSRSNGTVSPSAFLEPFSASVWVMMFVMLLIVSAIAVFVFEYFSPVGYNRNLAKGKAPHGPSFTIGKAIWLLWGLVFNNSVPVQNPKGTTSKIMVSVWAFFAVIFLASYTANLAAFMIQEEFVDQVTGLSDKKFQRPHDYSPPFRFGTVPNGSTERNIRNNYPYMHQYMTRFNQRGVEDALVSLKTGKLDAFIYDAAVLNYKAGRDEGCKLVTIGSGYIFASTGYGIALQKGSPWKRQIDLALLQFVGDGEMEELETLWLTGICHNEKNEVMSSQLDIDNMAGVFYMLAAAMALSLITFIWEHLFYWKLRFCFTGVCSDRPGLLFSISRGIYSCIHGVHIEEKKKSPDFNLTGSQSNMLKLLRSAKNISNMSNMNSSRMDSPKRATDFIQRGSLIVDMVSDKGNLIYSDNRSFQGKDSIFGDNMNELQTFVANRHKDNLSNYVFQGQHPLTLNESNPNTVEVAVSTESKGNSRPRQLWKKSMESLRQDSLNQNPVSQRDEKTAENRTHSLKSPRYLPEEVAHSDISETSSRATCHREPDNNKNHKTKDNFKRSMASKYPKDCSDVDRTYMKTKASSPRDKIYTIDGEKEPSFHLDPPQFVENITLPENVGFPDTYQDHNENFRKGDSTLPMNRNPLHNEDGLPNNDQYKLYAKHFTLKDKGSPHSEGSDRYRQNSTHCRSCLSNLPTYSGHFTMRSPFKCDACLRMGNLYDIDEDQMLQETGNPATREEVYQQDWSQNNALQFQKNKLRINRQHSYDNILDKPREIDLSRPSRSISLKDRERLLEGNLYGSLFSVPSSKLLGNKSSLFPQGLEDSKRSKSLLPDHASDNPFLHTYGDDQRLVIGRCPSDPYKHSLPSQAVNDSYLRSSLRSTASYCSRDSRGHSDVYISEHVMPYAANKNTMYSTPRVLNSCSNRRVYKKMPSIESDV
T1 sequence (Q00961 20-1237, other chains not shown): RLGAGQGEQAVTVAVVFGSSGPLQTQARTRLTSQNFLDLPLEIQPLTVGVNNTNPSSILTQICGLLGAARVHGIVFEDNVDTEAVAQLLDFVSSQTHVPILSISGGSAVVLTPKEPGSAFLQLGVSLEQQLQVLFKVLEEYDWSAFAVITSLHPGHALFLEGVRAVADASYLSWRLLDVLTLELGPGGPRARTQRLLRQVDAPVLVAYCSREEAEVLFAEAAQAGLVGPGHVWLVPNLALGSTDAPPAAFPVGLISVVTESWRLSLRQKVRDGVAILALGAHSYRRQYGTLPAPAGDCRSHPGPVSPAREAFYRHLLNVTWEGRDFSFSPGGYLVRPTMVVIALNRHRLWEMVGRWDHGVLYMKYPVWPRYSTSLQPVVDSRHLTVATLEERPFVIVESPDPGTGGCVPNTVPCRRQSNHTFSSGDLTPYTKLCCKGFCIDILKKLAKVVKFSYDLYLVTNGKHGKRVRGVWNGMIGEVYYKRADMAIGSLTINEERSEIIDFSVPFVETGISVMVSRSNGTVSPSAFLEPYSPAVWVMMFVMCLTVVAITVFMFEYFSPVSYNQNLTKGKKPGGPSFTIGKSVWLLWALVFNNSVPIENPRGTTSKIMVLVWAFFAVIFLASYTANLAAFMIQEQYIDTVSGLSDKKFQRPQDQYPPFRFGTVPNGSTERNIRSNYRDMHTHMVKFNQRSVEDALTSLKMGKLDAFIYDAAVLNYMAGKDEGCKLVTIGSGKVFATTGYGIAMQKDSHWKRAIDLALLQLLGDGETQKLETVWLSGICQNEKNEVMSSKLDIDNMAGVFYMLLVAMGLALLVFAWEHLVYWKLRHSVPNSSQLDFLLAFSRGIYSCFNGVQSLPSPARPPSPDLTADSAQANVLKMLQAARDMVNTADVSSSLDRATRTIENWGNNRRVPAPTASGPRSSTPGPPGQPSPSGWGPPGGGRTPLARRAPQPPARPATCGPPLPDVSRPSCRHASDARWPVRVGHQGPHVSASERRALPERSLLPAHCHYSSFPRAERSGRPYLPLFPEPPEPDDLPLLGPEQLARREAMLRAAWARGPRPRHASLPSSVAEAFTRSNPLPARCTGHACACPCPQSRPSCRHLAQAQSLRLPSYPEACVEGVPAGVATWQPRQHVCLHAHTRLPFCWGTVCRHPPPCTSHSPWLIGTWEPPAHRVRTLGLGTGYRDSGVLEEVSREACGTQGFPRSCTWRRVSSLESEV
Chain of NR1/NR2C (Rattus norvegicus, UniProt P35439+Q00961) (Q00961 20-1237, other chains not shown): as above

EC50 (NR1/NR2C [1]): 720 µM
pEC50 (mean ± SEM) (NR1/NR2C [1]): 3.15±0.06
I/Imax (relative maximal response) (NR1/NR2C [1]): 0.47 ± 0.03
EC50 (NR1/NR2D [2]): 230 µM
pEC50 (mean ± SEM) (NR1/NR2D [2]): 3.63±0.01
I/Imax (relative maximal response) (NR1/NR2D [2]): 0.67 ± 0.01
[3H]CGP39653 mean pKi ± SEM (native NMDA receptors [3]): 4.74 ± 0.13
Ki (native NMDA receptors [3]): 21 µM
EC50 (NR1/NR2A [4]): > 1000 µM
Agonist activity (in words) (NR1/NR2B [5]): activated
EC50 (NR1/NR2B [5]): > 3000 µM
Structure (SMILES): O=C(O)[C@H]1CN[C@H]1C(=O)O [D-cis-ADC, (2R,3S)-Azetidine-2,3-dicarboxylic acid]
Agonist activity (in words) (NR1/NR2C [1]): activated; also recorded: partial agonist
Agonist activity (in words) (NR1/NR2D [2]): activated; also recorded: partial agonist

Agonist activity (in words) (NR1/NR2C [1]): activated
EC50 (NR1/NR2C [6]): > 1000 µM
Agonist activity (in words) (NR1/NR2D [2]): activated
I/Imax (relative maximal response) (NR1/NR2D [2]): 0.69 ± 0.01
EC50 (NR1/NR2D [7]): 660 µM
Affinity for glutamate binding site of native NMDA receptors (in words) (native NMDA receptors [3]): essentially without affinity
[3H]CGP39653 mean pKi ± SEM (native NMDA receptors [3]): 4.05 ± 0.03
Ki (native NMDA receptors [3]): 90 µM
EC50 (NR1/NR2A [4]): > 1000 µM
Agonist activity (in words) (NR1/NR2B [5]): activated
EC50 (NR1/NR2B [8]): > 1000 µM
Structure (SMILES): O=C(O)[C@@H]1CN[C@H]1C(=O)O [D-trans-ADC, (2R,3R)-Azetidine-2,3-dicarboxylic acid]

EC50 (NR1/NR2C [1]): > 1000 µM
EC50 (NR1/NR2D [2]): > 1000 µM
Affinity for glutamate binding site of native NMDA receptors (in words) (native NMDA receptors [3]): essentially without affinity
Ki (native NMDA receptors [3]): > 100 µM
Agonist activity (in words) (NR1/NR2A [4]): unable to activate
EC50 (NR1/NR2A [4]): > 1000 µM
Agonist activity (in words) (NR1/NR2B [5]): unable to activate
EC50 (NR1/NR2B [5]): > 1000 µM
Structure (SMILES): O=C(O)[C@H]1NC[C@H]1C(=O)O [L-cis-ADC]
Agonist activity (in words) (NR1/NR2C [1]): only at high concentrations (1000 μM) some activation
Agonist activity (in words) (NR1/NR2D [2]): only at high concentrations (1000 μM) some activation

EC50 (NR1/NR2C [1]): 95 µM
pEC50 (mean ± SEM) (NR1/NR2C [1]): 4.02±0.02
I/Imax (relative maximal response) (NR1/NR2C [1]): 0.73 ± 0.03
EC50 (NR1/NR2D [2]): 50 µM
pEC50 (mean ± SEM) (NR1/NR2D [2]): 4.30±0.02
Preference (agonist potency) for NR1/NR2D over NR1/NR2A (NR1/NR2D [2]; NR1/NR2D vs NR1/NR2A): 9.4 fold
Preference (agonist potency) for NR1/NR2D over NR1/NR2B (NR1/NR2D [2]; NR1/NR2D vs NR1/NR2B): 3.4 fold
Preference (agonist potency) for NR1/NR2D over NR1/NR2C (NR1/NR2D [2]; NR1/NR2D vs NR1/NR2C): 1.9 fold
I/Imax (relative maximal response) (NR1/NR2D [2]): 0.80 ± 0.01
[3H]CGP39653 mean pKi ± SEM (native NMDA receptors [3]): 5.04 ± 0.10
Ki (native NMDA receptors [3]): 10 µM
Agonist activity (in words) (NR1/NR2A [4]): able to (partially) activate
pEC50 (mean ± SEM) (NR1/NR2A [4]): 3.32±0.03
EC50 (NR1/NR2A [4]): 470 µM
I/Imax (relative maximal response) (NR1/NR2A [4]; [16]): 0.38 ± 0.02
pEC50 (mean ± SEM) (NR1/NR2B [5]): 3.76±0.01
EC50 (NR1/NR2B [5]): 170 µM
I/Imax (relative maximal response) (NR1/NR2B [5]; [16]): 0.48 ± 0.01
Structure (SMILES): O=C(O)[C@H]1CN[C@@H]1C(=O)O [L-trans-ADC]
Affinity at native EAATs (in words) [9]: affinity in the medium micromolar range

Structure (SMILES): CN[C@H](CC(=O)O)C(=O)O [NMDA, N-methyl-D-aspartic acid]
EC50 (NR1/NR2A [10]): 75 µM
pEC50 (mean ± SEM) (NR1/NR2A [10]): 4.13±0.07
I/Imax (relative maximal response) (NR1/NR2A [10]; relative to glutamate (1.0)): 0.90 ± 0.04
Ki (native NMDA receptors [11]): 6.2 µM
EC50 (NR1/NR2B [12]): 22 µM
pEC50 (mean ± SEM) (NR1/NR2B [12]): 4.66±0.03
I/Imax (relative maximal response) (NR1/NR2B [12]; relative to glutamate (1.0)): 0.77 ± 0.01
EC50 (NR1/NR2D [13]; NR1/NR2D): 8.3 µM
pEC50 (mean ± SEM) (NR1/NR2D [13]; NR1/NR2D): 5.08±0.04
I/Imax (relative maximal response) (NR1/NR2D [13]; NR1/NR2D, relative to glutamate (1.0)): 0.80 ± 0.02
EC50 (NR1/NR2C [14]): 23 µM
pEC50 (mean ± SEM) (NR1/NR2C [14]): 4.63±0.02
I/Imax (relative maximal response) (NR1/NR2C [14]; relative to glutamate (1.0)): 0.73 ± 0.02

Structure (SMILES): C[C@H](C[C@H](N)C(=O)O)C(=O)O [SYM2081, (2S,4R)-4-methylglutamate]
Higher potency at NR1/NR2D over NR1/NR2A (NR1/NR2D [13]; NR1/NR2D vs NR1/NR2A): 46 fold

Structure (SMILES): N[C@@H](CCC(=O)O)C(=O)O [glutamate, (S)-glutamate]
Decrease of potency by mutation Y730 to phenylalanine in NR2A [15]: 45 fold
Change of potency on NR2D(Y732F) (in words) (NR2D(Y732F)): slightly increased
